Results published in US12344623B2, “Thiazolopyridine derivatives as adenosine receptor antagonists” (Merck Patent GmbH, priority 2019, dated 2025).
Where two headings read alike, the source gives them in different places.

How the values were obtained:
Assay type in all cases: cell-based
human A2A receptor = human A2A receptor (Homo sapiens, UniProt P29274); experiment: Functional A2A receptor activity, recombinant HEK293 cells, cAMP (HTRF), agonist NECA; design: expressed in transfected cells; host or cells: HEK293; conditions: read-out: Functional A2A receptor activity, HEK293, cAMP, IC50
Method: (§1) The functional activities of human A2A, A2B, A1 and A3 receptors were determined by quantification of cAMP, being the second messenger for adenosine receptors.
(§2) Cells were seeded into 384-well plates, forskolin, test compounds and agonists (CPA for A1- and IB-MECA for A3-receptor) were added. After 30 min incubation, HTRF reagents (cAMP dynamic 2, Cis Bio) were added and the cellular cAMP levels were determined using the ENVISION (Perkin Elmer) plate reader. Obtained raw data were normalized against the inhibitor control and the neural control (DMSO) and the normalized data were fitted using GeneData software.

human A2B receptor = target: T1, human A2B receptor (Homo sapiens, UniProt P29275); experiment: Functional A2B receptor activity, recombinant HEK293 cells, cAMP (HTRF), agonist NECA; conditions: read-out: Functional A2B receptor activity, HEK293, cAMP, IC50
T1 construct: expressed in transfected cells; host or cells: HEK293
T1 sequence (P29275 1-332): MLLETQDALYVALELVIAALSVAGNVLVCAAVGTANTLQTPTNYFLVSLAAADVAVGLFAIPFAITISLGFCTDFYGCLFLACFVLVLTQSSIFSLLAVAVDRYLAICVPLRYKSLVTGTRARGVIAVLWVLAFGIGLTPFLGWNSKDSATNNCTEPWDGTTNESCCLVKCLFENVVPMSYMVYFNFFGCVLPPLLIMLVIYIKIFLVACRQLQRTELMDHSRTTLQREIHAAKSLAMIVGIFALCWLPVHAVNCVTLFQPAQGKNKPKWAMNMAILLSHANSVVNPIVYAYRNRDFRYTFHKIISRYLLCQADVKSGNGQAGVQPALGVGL
Method: as §1, §2

human A1 receptor = target: T2, human A1 receptor (Homo sapiens, UniProt P30542); experiment: Functional A1 receptor activity, recombinant CHO cells, cAMP (HTRF), forskolin, agonist CPA; conditions: recombinant CHO cells, forskolin, agonist CPA; read-out: Functional A1 receptor activity, CHO, cAMP, IC50
T2 construct: expressed in transfected cells; host or cells: CHO
T2 sequence (P30542 1-326): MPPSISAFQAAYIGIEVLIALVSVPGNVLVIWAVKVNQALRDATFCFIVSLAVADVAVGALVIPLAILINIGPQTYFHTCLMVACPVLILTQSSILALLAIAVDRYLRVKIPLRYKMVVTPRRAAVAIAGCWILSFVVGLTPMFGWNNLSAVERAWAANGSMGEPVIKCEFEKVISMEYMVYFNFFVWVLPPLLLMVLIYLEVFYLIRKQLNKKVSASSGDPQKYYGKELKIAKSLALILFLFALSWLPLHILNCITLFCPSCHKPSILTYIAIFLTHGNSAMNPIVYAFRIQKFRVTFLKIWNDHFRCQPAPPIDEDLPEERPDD
Method: as §1
(§3) For human A1 and A3 receptors, recombinant CHO cells, expressing either A1 or A3-receptor, were used. As both receptors couple to Gi proteins, the assay protocol was adapted:
as §2

human A3 receptor = target: T3, human A3 receptor (Homo sapiens, UniProt P0DMS8); experiment: Functional A3 receptor activity, recombinant CHO cells, cAMP (HTRF), forskolin, agonist IB-MECA; conditions: recombinant CHO cells, forskolin, agonist IB-MECA, read-out: Functional A3 receptor activity, CHO, cAMP, IC50
T3 construct: expressed in transfected cells; host or cells: CHO
T3 sequence (P0DMS8 1-318): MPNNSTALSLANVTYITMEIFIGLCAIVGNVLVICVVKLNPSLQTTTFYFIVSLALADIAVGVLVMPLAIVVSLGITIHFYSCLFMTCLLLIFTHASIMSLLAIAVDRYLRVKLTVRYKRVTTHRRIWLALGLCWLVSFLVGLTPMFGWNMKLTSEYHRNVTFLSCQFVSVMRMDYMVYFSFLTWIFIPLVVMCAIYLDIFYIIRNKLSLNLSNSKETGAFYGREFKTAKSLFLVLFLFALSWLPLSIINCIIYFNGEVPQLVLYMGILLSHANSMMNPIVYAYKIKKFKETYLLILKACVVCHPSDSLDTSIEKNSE
Method: as §1, §3, §2

human A2A receptor, sequence (P29274 whole entry): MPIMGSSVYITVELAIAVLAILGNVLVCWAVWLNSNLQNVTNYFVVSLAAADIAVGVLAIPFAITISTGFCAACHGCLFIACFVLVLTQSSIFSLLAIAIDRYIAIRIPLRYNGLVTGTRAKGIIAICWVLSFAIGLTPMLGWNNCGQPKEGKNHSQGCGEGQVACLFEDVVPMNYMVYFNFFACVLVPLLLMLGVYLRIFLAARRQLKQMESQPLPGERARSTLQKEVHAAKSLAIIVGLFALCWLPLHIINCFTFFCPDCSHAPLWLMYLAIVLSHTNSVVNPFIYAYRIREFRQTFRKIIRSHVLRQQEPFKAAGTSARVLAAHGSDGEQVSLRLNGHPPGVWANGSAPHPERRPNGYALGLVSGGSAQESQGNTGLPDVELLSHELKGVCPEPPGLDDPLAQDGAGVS

| SMILES | IC50 (human A2A receptor) | IC50 (human A2B receptor) | IC50 (human A1 receptor) | IC50 (human A3 receptor) | IC50 (human A3 receptor; cAMP) |
| --- | --- | --- | --- | --- | --- |
| COc1ncc(I)c2sc(NC(=O)N3CCC4(CCOCC4)C3)nc12 [Compound 171, 8-Oxa-2-aza-spiro[4.5]decane-2-carboxylic acid (7-iodo-4-methoxy-thiazolo[4,5-c]pyridin-2-yl)-amide] | < 0.1 µM | < 0.1 µM | > 1 µM | > 1 µM |  |
| COc1ncc(-c2cccc(NS(C)(=O)=O)c2)c2sc(NC(=O)N3CCC4(CCOCC4)C3)nc12 [Compound 120, 8-Oxa-2-aza-spiro[4.5]decane-2-carboxylic acid [7-(3-methanesulfonylamino-phenyl)-4-methoxy-thiazolo[4,5-c]pyridin-2-yl]-amide] | < 0.1 µM |  | > 1 µM | > 1 µM |  |
| COc1ncc(-c2ccccc2)c2sc(NC(=O)c3cn[nH]c3)nc12 [Compound 117, N-{4-methoxy-7-phenyl-[1,3]thiazolo[4,5-c]pyridin-2-yl}-1H-pyrazole-4-carboxamide] | < 0.01 µM | < 0.01 µM |  | < 1 µM |  |
| COc1ncc(C2=CCOCC2)c2sc(NC(=O)c3cn[nH]c3)nc12 [Compound 116, N-[7-(3,6-dihydro-2H-pyran-4-yl)-4-methoxy-[1,3]thiazolo[4,5-c]pyridin-2-yl]-1H-pyrazole-4-carboxamide] | < 0.01 µM | < 0.01 µM |  | < 1 µM |  |
| COC(=O)N(C)Cc1ccc(C(=O)Nc2nc3c(OC)ncc(C4=CCOCC4)c3s2)cc1 [Compound 167, {4-[7-(3,6-Dihydro-2H-pyran-4-yl)-4-methoxy-thiazolo[4,5-c]pyridin-2-ylcarbamoyl]-benzyl}-methyl-carbamic acid methyl ester] | < 0.01 µM | < 0.01 µM |  | > 1 µM |  |
| COc1cnc(N2CCOCC2)c2sc(NC(=O)N3CCC4(CCN(C)C4=O)CC3)nc12 [drawing 186, reference compound] | < 0.1 µM | > 1 µM |  |  | > 1 µM |
| COc1ncc(-c2cnn(C[C@H]3CCCCO3)c2)c2sc(NC(=O)N3CCC4(CCOCC4)C3)nc12 [Compound 119, 8-Oxa-2-aza-spiro[4.5]decane-2-carboxylic acid (4-methoxy-7-{1-[(R)-1-(tetrahydro-pyran-2-yl)methyl]-1H-pyrazol-4-yl}-thiazolo[4,5-c]pyridin-2-yl)-amide] | < 0.01 µM | < 0.1 µM |  | > 1 µM |  |
| COc1ncc(-c2cnn(Cc3cccnc3)c2)c2sc(NC(=O)c3ccc(C(=O)O)cc3)nc12 [Compound 115, 4-[(4-methoxy-7-{1-[(pyridin-3-yl)methyl]-1H-pyrazol-4-yl}-[1,3]thiazolo[4,5-c]pyridin-2-yl)carbamoyl]benzoic acid] | < 0.01 µM | < 0.01 µM |  | < 1 µM |  |
| COc1ncc(C2=CCOCC2)c2sc(NC(=O)c3cnn(Cc4ncc[nH]4)c3)nc12 [Compound 158, 1-(1H-Imidazol-2-ylmethyl)-1H-pyrazole-4-carboxylic acid [7-(3,6-dihydro-2H-pyran-4-yl)-4-methoxy-thiazolo[4,5-c]pyridin-2-yl]-amide] | < 0.01 µM | < 0.01 µM |  | > 1 µM |  |
| COc1ncc(-c2cnn(C(C)(C)c3ccccc3)c2)c2sc(NC(=O)N3CCC4(CCOCC4)C3)nc12 [Compound 163, 8-Oxa-2-aza-spiro[4.5]decane-2-carboxylic acid {4-methoxy-7-[1-(1-methyl-1-phenyl-ethyl)-1H-pyrazol-4-yl]-thiazolo[4,5-c]pyridin-2-yl}-amide] | < 0.01 µM | < 0.1 µM |  | > 1 µM |  |

The next lines start with the values.

| IC50 (human A2A receptor) | IC50 (human A2B receptor) | IC50 (human A1 receptor) | IC50 (human A3 receptor) | IC50 (human A3 receptor; cAMP) | SMILES |
| --- | --- | --- | --- | --- | --- |
| < 0.01 µM | < 0.1 µM | < 1 µM | < 1 µM |  | COc1nc(F)c(C2CCOCC2)c2sc(NC(=O)C3CC3)nc12 [Compound 28, Cyclopropanecarboxylic acid [6-fluoro-4-methoxy-7-(tetrahydro-pyran-4-yl)-thiazolo[4,5-c]pyridin-2-yl]-amide] |
| < 0.01 µM | < 0.1 µM | < 1 µM | > 1 µM |  | COc1ncc(-c2cnn(C(F)F)c2)c2sc(NC(=O)N3CCC4(CCOCC4)C3)nc12 [Compound 79, 8-Oxa-2-aza-spiro[4.5]decane-2-carboxylic acid [7-(1-difluoromethyl-1H-pyrazol-4-yl)-4-methoxy-thiazolo[4,5-c]pyridin-2-yl]-amide] |
| < 0.01 µM | < 0.1 µM | > 1 µM | > 1 µM |  | COc1ncc(-c2ccc3cc[nH]c3c2)c2sc(NC(=O)N3CCC4(CCOCC4)C3)nc12 [Compound 9, N-[7-(1H-indol-6-yl)-4-methoxy-[1,3]thiazolo[4,5-c]pyridin-2-yl]-8-oxa-2-azaspiro[4.5]decane-2-carboxamide] |
| < 0.01 µM | < 0.1 µM | > 1 µM | > 1 µM |  | COc1ncc(C2=CCOCC2)c2sc(NC(=O)N3CCC(N4C(=O)C=CC4=O)CC3)nc12 [Compound 88, N-[7-(3,6-dihydro-2H-pyran-4-yl)-4-methoxy-[1,3]thiazolo[4,5-c]pyridin-2-yl]-4-(2,5-dioxo-2,5-dihydro-1H-pyrrol-1-yl)piperidine-1-carboxamide] |
| < 0.01 µM | < 0.1 µM | < 1 µM | > 1 µM |  | COc1ncc(-c2csc(C)n2)c2sc(NC(=O)N3CCC4(CCOCC4)C3)nc12 [Compound 67, 8-Oxa-2-aza-spiro[4.5]decane-2-carboxylic acid [4-methoxy-7-(2-methyl-thiazol-4-yl)-thiazolo[4,5-c]pyridin-2-yl]-amide] |
| < 0.01 µM | < 0.01 µM | < 1 µM | > 1 µM |  | COc1ncc(-c2cccc(O)c2)c2sc(NC(=O)N3CCC4(CCOCC4)C3)nc12 [Compound 153, 8-Oxa-2-aza-spiro[4.5]decane-2-carboxylic acid [7-(3-hydroxy-phenyl)-4-methoxy-thiazolo[4,5-c]pyridin-2-yl]-amide] |
| < 0.01 µM | < 0.1 µM |  | > 1 µM |  | COc1ncc(-c2cnn(C[C@H]3CCCOC3)c2)c2sc(NC(=O)N3CCC4(CCOCC4)C3)nc12 [Compound 104, 8-Oxa-2-aza-spiro[4.5]decane-2-carboxylic acid (4-methoxy-7-{1-[(R)-1-(tetrahydro-pyran-3-yl)methyl]-1H-pyrazol-4-yl}-thiazolo[4,5-c]pyridin-2-yl)-amide] |
| < 0.01 µM | < 0.1 µM |  | > 1 µM |  | COc1ncc(-c2cnn(C[C@@H]3CCCCO3)c2)c2sc(NC(=O)N3CCC4(CCOCC4)C3)nc12 [Compound 118, 8-Oxa-2-aza-spiro[4.5]decane-2-carboxylic acid (4-methoxy-7-{1-[(S)-1-(tetrahydro-pyran-2-yl)methyl]-1H-pyrazol-4-yl}-thiazolo[4,5-c]pyridin-2-yl)-amide] |
| < 0.01 µM | < 0.1 µM |  | > 1 µM |  | COc1ncc(-c2cnn(C[C@@H]3CCCOC3)c2)c2sc(NC(=O)N3CCC4(CCOCC4)C3)nc12 [Compound 105, 8-Oxa-2-aza-spiro[4.5]decane-2-carboxylic acid (4-methoxy-7-{1-[(S)-1-(tetrahydro-pyran-3-yl)methyl]-1H-pyrazol-4-yl}-thiazolo[4,5-c]pyridin-2-yl)-amide] |
| < 0.01 µM | < 0.1 µM |  | > 1 µM |  | COc1ncc(C2=CCOCC2)c2sc(NC(=O)c3ccc(C(=O)NCCN4CCC4)cc3)nc12 [Compound 139, N-(2-Azetidin-1-yl-ethyl)-N′-[7-(3,6-dihydro-2H-pyran-4-yl)-4-methoxy-thiazolo[4,5-c]pyridin-2-yl]-terephthalamide] |
